Residues, ends and D or L forms follow the SMILES beside them. *: point of attachment. FITC = O=C1OC2(c3ccc(O)cc3Oc3cc(O)ccc32)c2ccc(NC(=S)*)cc21
target: T1, CCL8 (Homo sapiens, UniProt P80075); assay: Fluorescence polarisation (anisotropy) assay; type: binding; conditions: BK1.1FITC Ala mutants, CCL8
T1 construct: SUMO (in-house protein only) (cleaved yes); made in house; host or cells: Escherichia coli RosettaGami 2 (DE3)
T1 sequence (P80075 24-99): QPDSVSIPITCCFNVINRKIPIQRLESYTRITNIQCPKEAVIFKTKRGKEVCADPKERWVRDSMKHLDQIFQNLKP
Description: FIG. 14. Characterisation of P672_PEP-FITC by fluorescence polarisation. […] Residue C30 was mutated to A to avoid an unpaired cysteine residue. The residues corresponding to the above peptide are wholly contained within the CCL8-binding region of P672_RHIPU transferred in the hybrid evasin P672:EVA1 (SEQ ID 76, see FIG. 5). […] (SEQ ID NO: 90). FIG. 14(A). […] The curve was fitted to the two site-total and non-specific binding model in GraphPad Prism 6. Data are shown as mean and SEM of three independent experiments, with each independent experiment performed as three technical replicates. The affinity constant Kd was calculated in GraphPad Prism from the curve fit with the standard error reported.
FIG. 14(B). […] The measured fluorescence anisotropy (y-axis) of P672_PEP-FITC (50 nM) following binding to a fixed dose (1 μM)) of CCL7, CCL8, CCL18 and CXCL1 (negative control). […] Statistical significance was determined using one-way ANOVA with Sidak's correction for multiple comparisons using Graph Pad Prism 6. **=p<0.005, ****=P<0.00005, ns=not significant.
FIG. 15(C). […] In each case 100 μM (++) or […] (+) of P672_PEP was incubated with P672_PEP-FITC (50 nM)/chemokine (1 μM CCL7 and CCL18; 500 nM CCL8) and the resulting anisotropy measured. […] Experiment carried out in triplicate where each data point is the average of one experiment carried out in technical triplicate. Mean with SEM shown and statistical significance was determined using one-way ANOVA with Sidak's correction for multiple comparisons using Graph Pad Prism 6. *=p<0.05, ***=p<0.0005, ****=P<0.00005, ns=not significant.
Fluorescence polarization assays were performed using a Clariostar (BMG Tech) plate reader with the supplied FITC excitation and emission filters using 96 half area well plates (Corning). The buffer used (FP assay buffer) was 50 mM HEPES, 150 mM NaCl, 0.1% BSA, 0.002% TWEEN-20, 0.2% DMSO, pH 7.4 and the final volume in each well was 30 μL. Polarization was converted to anisotropy using the equation A=(2*P)/(3−P) where P is polarization and A is anisotropy. For each peptide tested the gain was set to 35 mP and adjusted to a well containing fluorescent peptide only. The polarization of the emitted light in the FITC emission channel was then determined. Experiments were performed as two technical and three biological replicates. Screening of P672 peptide fragments was achieved through incubation of each peptide (50 nM) with 1 μM CCL8 (Peprotech) for 30 minutes in FP assay buffer and the resulting anisotropy of the emitted light determined as above. The chemokine cross binding screen was performed by incubating 1 μM chemokine (Peprotech) with 50 nM BK1.1FITC for half an hour in FP assay buffer and the resulting anisotropy of the emitted light determined as above. […] The anisotropy was plotted as a function of CCL8 concentration and fitted to the equation: Y=Bmax*X/(KD+X)+NS*X+Background, where Y is the measured anisotropy, X is the concentration of CCL8 added, Bmax is the maximum binding, KD is the equilibrium dissociation constant, NS is the slope of the nonlinear regression and Background is the anisotropy when no CCL8 is present, in Graph Pad Prism. Displacement assays were carried out with CCL7, CCL8, and CCL18 (Peprotech, 1 μM). […] For all FP assays, the experiments were carried out as two technical and three biological replicates.

SMILES | Fold change (Kd versus WT)
CC(C)[C@H](NC(=O)[C@@H]1CCCN1C(=O)[C@H](CCCCN)NC(=O)[C@H](C)NC(=O)[C@H](Cc1ccccc1)NC(=O)[C@H](CC(=O)O)NC(=O)[C@H](CCC(=O)O)NC(=O)[C@H](Cc1ccc(O)cc1)NC(=O)[C@H](CC(=O)O)NC(=O)[C@H](CCC(=O)O)NC(=O)[C@H](CC(=O)O)NC(=O)[C@H](CCC(=O)O)NC(=S)Nc1ccc2c(c1)C(=O)OC21c2ccc(O)cc2Oc2cc(O)ccc21)C(=O)N[C@H](C(=O)N[C@@H](C)C(=O)N[C@@H](Cc1ccc(O)cc1)C(=O)N[C@@H](Cc1ccccc1)C(N)=O)[C@@H](C)O [F25A] ({FITC}-EDEDYEDFAKPVTAYF-NH2) | 4.6
CC(C)[C@H](NC(=O)[C@@H]1CCCN1C(=O)[C@H](CCCCN)NC(=O)[C@H](Cc1ccccc1)NC(=O)[C@H](Cc1ccccc1)NC(=O)[C@H](CC(=O)O)NC(=O)[C@H](CCC(=O)O)NC(=O)[C@H](C)NC(=O)[C@H](CC(=O)O)NC(=O)[C@H](CCC(=O)O)NC(=O)[C@H](CC(=O)O)NC(=O)[C@H](CCC(=O)O)NC(=S)Nc1ccc2c(c1)C(=O)OC21c2ccc(O)cc2Oc2cc(O)ccc21)C(=O)N[C@H](C(=O)N[C@@H](C)C(=O)N[C@@H](Cc1ccc(O)cc1)C(=O)N[C@@H](Cc1ccccc1)C(N)=O)[C@@H](C)O [Y21A] ({FITC}-EDEDAEDFFKPVTAYF-NH2) | 4.7
CC(C)[C@H](NC(=O)[C@@H]1CCCN1C(=O)[C@H](C)NC(=O)[C@H](Cc1ccccc1)NC(=O)[C@H](Cc1ccccc1)NC(=O)[C@H](CC(=O)O)NC(=O)[C@H](CCC(=O)O)NC(=O)[C@H](Cc1ccc(O)cc1)NC(=O)[C@H](CC(=O)O)NC(=O)[C@H](CCC(=O)O)NC(=O)[C@H](CC(=O)O)NC(=O)[C@H](CCC(=O)O)NC(=S)Nc1ccc2c(c1)C(=O)OC21c2ccc(O)cc2Oc2cc(O)ccc21)C(=O)N[C@H](C(=O)N[C@@H](C)C(=O)N[C@@H](Cc1ccc(O)cc1)C(=O)N[C@@H](Cc1ccccc1)C(N)=O)[C@@H](C)O [K26A] ({FITC}-EDEDYEDFFAPVTAYF-NH2) | 0.8
CC(C)[C@H](NC(=O)[C@@H]1CCCN1C(=O)[C@H](CCCCN)NC(=O)[C@H](Cc1ccccc1)NC(=O)[C@H](Cc1ccccc1)NC(=O)[C@H](C)NC(=O)[C@H](CCC(=O)O)NC(=O)[C@H](Cc1ccc(O)cc1)NC(=O)[C@H](CC(=O)O)NC(=O)[C@H](CCC(=O)O)NC(=O)[C@H](CC(=O)O)NC(=O)[C@H](CCC(=O)O)NC(=S)Nc1ccc2c(c1)C(=O)OC21c2ccc(O)cc2Oc2cc(O)ccc21)C(=O)N[C@H](C(=O)N[C@@H](C)C(=O)N[C@@H](Cc1ccc(O)cc1)C(=O)N[C@@H](Cc1ccccc1)C(N)=O)[C@@H](C)O [D23A] ({FITC}-EDEDYEAFFKPVTAYF-NH2) | 1.5
CC(C)[C@H](NC(=O)[C@@H]1CCCN1C(=O)[C@H](CCCCN)NC(=O)[C@H](Cc1ccccc1)NC(=O)[C@H](Cc1ccccc1)NC(=O)[C@H](CC(=O)O)NC(=O)[C@H](CCC(=O)O)NC(=O)[C@H](Cc1ccc(O)cc1)NC(=O)[C@H](CC(=O)O)NC(=O)[C@H](CCC(=O)O)NC(=O)[C@H](C)NC(=O)[C@H](CCC(=O)O)NC(=S)Nc1ccc2c(c1)C(=O)OC21c2ccc(O)cc2Oc2cc(O)ccc21)C(=O)N[C@H](C(=O)N[C@@H](C)C(=O)N[C@@H](Cc1ccc(O)cc1)C(=O)N[C@@H](Cc1ccccc1)C(N)=O)[C@@H](C)O [D18A] ({FITC}-EAEDYEDFFKPVTAYF-NH2) | 2.5
CC(C)[C@H](NC(=O)[C@@H]1CCCN1C(=O)[C@H](CCCCN)NC(=O)[C@H](Cc1ccccc1)NC(=O)[C@H](Cc1ccccc1)NC(=O)[C@H](CC(=O)O)NC(=O)[C@H](CCC(=O)O)NC(=O)[C@H](Cc1ccc(O)cc1)NC(=O)[C@H](CC(=O)O)NC(=O)[C@H](CCC(=O)O)NC(=O)[C@H](CC(=O)O)NC(=O)[C@H](CCC(=O)O)NC(=S)Nc1ccc2c(c1)C(=O)OC21c2ccc(O)cc2Oc2cc(O)ccc21)C(=O)N[C@H](C(=O)N[C@@H](C)C(=O)N[C@@H](C)C(=O)N[C@@H](Cc1ccccc1)C(N)=O)[C@@H](C)O [Y31A] ({FITC}-EDEDYEDFFKPVTAAF-NH2) | 3.8
CC(C)[C@H](NC(=O)[C@@H]1CCCN1C(=O)[C@H](CCCCN)NC(=O)[C@H](Cc1ccccc1)NC(=O)[C@H](Cc1ccccc1)NC(=O)[C@H](CC(=O)O)NC(=O)[C@H](CCC(=O)O)NC(=O)[C@H](Cc1ccc(O)cc1)NC(=O)[C@H](C)NC(=O)[C@H](CCC(=O)O)NC(=O)[C@H](CC(=O)O)NC(=O)[C@H](CCC(=O)O)NC(=S)Nc1ccc2c(c1)C(=O)OC21c2ccc(O)cc2Oc2cc(O)ccc21)C(=O)N[C@H](C(=O)N[C@@H](C)C(=O)N[C@@H](Cc1ccc(O)cc1)C(=O)N[C@@H](Cc1ccccc1)C(N)=O)[C@@H](C)O [D20A] ({FITC}-EDEAYEDFFKPVTAYF-NH2) | 1.5
CC(C)[C@H](NC(=O)[C@@H]1CCCN1C(=O)[C@H](CCCCN)NC(=O)[C@H](Cc1ccccc1)NC(=O)[C@H](C)NC(=O)[C@H](CC(=O)O)NC(=O)[C@H](CCC(=O)O)NC(=O)[C@H](Cc1ccc(O)cc1)NC(=O)[C@H](CC(=O)O)NC(=O)[C@H](CCC(=O)O)NC(=O)[C@H](CC(=O)O)NC(=O)[C@H](CCC(=O)O)NC(=S)Nc1ccc2c(c1)C(=O)OC21c2ccc(O)cc2Oc2cc(O)ccc21)C(=O)N[C@H](C(=O)N[C@@H](C)C(=O)N[C@@H](Cc1ccc(O)cc1)C(=O)N[C@@H](Cc1ccccc1)C(N)=O)[C@@H](C)O [F24A] ({FITC}-EDEDYEDAFKPVTAYF-NH2) | 1.5

— patent publication US20200247855A1, “THERAPY AND DIAGNOSTICS” (OXFORD UNIVERSITY INNOVATION LIMITED, priority 2017, published 2020)
